Data taken from US4751222A, “2,3,4,5-tetrahydro-1H-3-benzazepines and CNS affecting use thereof” (Novo Industri A/S, priority 1985, dated 1988).
Structures can show the parent of a compound that is named as a salt. Where two headings read alike, the source gives them in different places.

Key:
dopamine D1 = settings: cited from earlier work
dopamine D1 receptor = dopamine D1 receptor (Rattus norvegicus, UniProt P18901); assay: biochemical; settings: read-out: Ki, dopamine stimulated adenylate cyclase
Excerpt: Ki is the affinity of the tested compound for the dopamine D1 receptor as estimated from Schild analysis.

[1] = Life Sci. 34 (1984), 1529; cited from earlier work
rats = assay: acute toxicity in rats, intraperitoneal; format: in vivo; settings: 100 mg/kg intraperitoneal
Protocol: (§1) 8-chloro-7-hydroxy-3-methyl-5-(5-indanyl)-2,3,4,5-tetrahydro-1H-3-benzazepine and several other compounds of formula I were atoxic when given to rats and mice in a dosis of 100 mg/kg intraperitonealt.

mice = assay: acute toxicity in mice, intraperitoneal; format: in vivo; settings: 100 mg/kg intraperitoneal
Protocol: as §1

[2] = Life Sci. 31 (1982), 637 et seq.

Chain of dopamine D1 receptor (P18901 whole entry): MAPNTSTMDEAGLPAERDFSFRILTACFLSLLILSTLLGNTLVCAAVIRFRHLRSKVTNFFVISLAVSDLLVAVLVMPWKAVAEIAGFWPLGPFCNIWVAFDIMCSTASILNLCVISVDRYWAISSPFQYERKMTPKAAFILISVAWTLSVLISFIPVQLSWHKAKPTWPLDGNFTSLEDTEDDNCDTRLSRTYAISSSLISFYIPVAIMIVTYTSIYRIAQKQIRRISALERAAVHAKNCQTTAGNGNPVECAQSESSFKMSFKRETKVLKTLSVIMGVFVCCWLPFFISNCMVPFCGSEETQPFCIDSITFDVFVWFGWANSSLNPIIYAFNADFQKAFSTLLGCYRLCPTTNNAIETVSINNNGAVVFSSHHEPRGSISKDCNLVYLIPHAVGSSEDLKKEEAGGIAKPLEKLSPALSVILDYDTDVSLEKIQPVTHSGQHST

Compound: 2,3,4,5-tetrahydro-9-chloro-7,8-dihydroxy-1-(4-hydroxyphenyl)-1H-3-benzazepine [SKF 82526]
- dopamine D1 activity (dopamine D1; [2]): selective but partial dopamine D1 agonists

Compound: CN1CCc2cc(Cl)c(O)cc2C(c2cccc3ccoc23)C1 (racemic) [Example No. 5h, 8-chloro-7-hydroxy-3-methyl-5-(7-benzofuranyl)-2,3,4,5-tetrahydro-1H-3-benzazepine]
- Ki (dopamine D1 receptor): 6 nM

Compound: Oc1cc2c(cc1O)C(c1ccccc1)CNCC2 (stereo not shown) [SKF 38393, 2,3,4,5-tetrahydro-7,8-dihydroxy-1-phenyl-1H-3-benzazepine]
- dopamine D1 activity (dopamine D1; [2]): selective but partial dopamine D1 agonists

Compound: CN1CCc2cc(Cl)c(O)cc2[C@@H](c2ccccc2)C1 [SCH 23390, R-8-chloro-7-hydroxy-2,3,4,5-tetrahydro-3-methyl-5-phenyl-1H-3-benzazepine]
- duration of action [1]: short duration of action
- peroral adsorption [1]: poor peroral adsorption
- dopamine D1 activity (dopamine D1; Eur.J.Pharmacol. 91 (1983), 153 et seq.): selective D1 dopamine antagonist

Compound: CN1CCc2cc(Cl)c(O)cc2C(c2ccc(Cl)c3c2OCCC3)C1 (racemic) [Example No. 5f, 8-chloro-7-hydroxy-3-methyl-5-(5-chlorochroman-8-yl)-2,3,4,5-tetrahydro-1H-3-benzazepine]
- Ki (dopamine D1 receptor): 10 nM

Compound: Br.CN1CCc2cc(Cl)c(O)cc2C(c2ccc3c(c2)CCC3)C1 (stereo not shown) [Example No. 5a, 8-chloro-7-hydroxy-3-methyl-5-(5-indanyl)-2,3,4,5-tetrahydro-1H-3-benzazepine hydrobromide]
- toxicity in rats (rats): atoxic
- toxicity in mice (mice): atoxic

Compound: CN1CCc2cc(Cl)c(O)cc2C(c2ccc3c(c2)CCCC3)C1 (racemic) [Example No. 5j, 8-chloro-7-hydroxy-5-(1,2,3,4-tetrahydronaphth-6-yl)-3-methyl-2,3,4,5-tetrahydro-1H-3-benzazepine hydrochloride]
- Ki (dopamine D1 receptor): 21 nM
